Reference: US7531646B2, “β-D-ribosidase activity indicators with a chromogenic substrate” (priority 2001, dated 2009)
Counter-ions that a name gives are not always drawn.

What was measured:
Test in all cases: Substrate hydrolysis on Columbia agar
Type in all cases: cell-based
[1] = test system: P. vulgaris; conditions: 300 mg/l, 18 hours
[2] = test system: Staphylococcus epidermidis; conditions: 300 mg/l, 18 hours
[3] = test system: Vibrio vulnificus; conditions: 300 mg/l, 18 hours
[4] = test system: C. freundii; conditions: 300 mg/l, 18 hours
[5] = test system: Streptococcus vestibularis; conditions: Streptococcus vestibularis NCTC 12166; 300 mg/l; 18 hours
[6] = test system: Aeromonas hydrophila; parameters: key to the marks not given beside the values; conditions: Aeromonas hydrophila NCTC 8049; 300 mg/l; 18 hours
[7] = test system: Streptococcus crista; conditions: Streptococcus crista NCTC 12479; 300 mg/l; 18 hours
[8] = test system: Enterococcus faecium; conditions: 300 mg/l, 18 hours
[9] = test system: Salmonella typhi; conditions: Salmonella typhi NCTC 8385; 300 mg/l; 18 hours
[10] = test system: Shigella dysenteriae; conditions: 300 mg/l, 18 hours
[11] = test system: E. coli 0157; conditions: 300 mg/l, 18 hours
[12] = test system: Staphylococcus haemolyticus; conditions: 300 mg/l, 18 hours
[13] = test system: Enterococcus mundtii; conditions: Enterococcus mundtii NCTC 12363; 300 mg/l; 18 hours
[14] = test system: Bacillus licusniforms; conditions: Bacillus licusniforms NCIMB 9375; 300 mg/l; 18 hours
[15] = test system: Listeria innocua; conditions: Listeria innocua PHLS wild; 300 mg/l; 18 hours
[16] = test system: Hafnia alvei; conditions: 300 mg/l, 18 hours
[17] = test system: Aeromonas sobria; conditions: Aeromonas sobria NCTC 11215; 300 mg/l; 18 hours
[18] = test system: Streptococcus gordonii; conditions: Streptococcus gordonii NCTC 7865; 300 mg/l; 18 hours
[19] = test system: Enterococcus raffinosis; conditions: Enterococcus raffinosis NCTC 13192; 300 mg/l; 18 hours
[20] = test system: P. penneri; conditions: P. penneri PPE 1; 300 mg/l; 18 hours
[21] = test system: Haemolytic streptococcus A; conditions: 300 mg/l, 18 hours
[22] = test system: Arcanobacterium haemolyticus; conditions: Arcanobacterium haemolyticus NCTC 52; 300 mg/l; 18 hours
[23] = test system: E. aerogenes; conditions: 300 mg/l, 18 hours
[24] = test system: K. oxytoca; conditions: 300 mg/l, 18 hours
[25] = test system: Y. enterocolitica; conditions: 300 mg/l, 18 hours
[26] = test system: Providencia alcalifaciens; conditions: 300 mg/l, 18 hours
[27] = test system: Salmonella orthmarchen; conditions: Salmonella orthmarchen SAX 59; 300 mg/l; 18 hours
[28] = test system: C. diversus; conditions: 300 mg/l, 18 hours
[29] = test system: Bacillus cereus; conditions: Bacillus cereus NCTC; 300 mg/l; 18 hours
[30] = test system: Listeria seerigeri; conditions: Listeria seerigeri PHLS wild; 300 mg/l; 18 hours

O=c1cc(-c2ccc(OC3OC(CO)C(O)C3O)c(O)c2)oc2ccccc12 [DHF-riboside, 3′,4′-dihydroxyflavone-4′-β-D-ribofuranoside Sodium Salt]
Hydrolysis by Gram negative bacteria ([1]; P. vulgaris PVU 2): − | Hydrolysis by Gram negative bacteria ([1]; P. vulgaris PVU 4): − | Hydrolysis by Gram negative bacteria ([1]; P. vulgaris PVU 5): − | Hydrolysis by Gram positive organisms ([2]; Staphylococcus epidermidis RB60): ++ | Hydrolysis by Gram positive organisms ([2]; Staphylococcus epidermidis RB62): + | Hydrolysis by Gram positive organisms ([2]; Staphylococcus epidermidis RB63): + | Hydrolysis by Gram positive organisms ([2]; Staphylococcus epidermidis RB64): + | Hydrolysis by Gram positive organisms ([2]; Staphylococcus epidermidis RB65): + | Hydrolysis by Gram negative bacteria ([3]; Vibrio vulnificus NCTC 11066): − | Hydrolysis by Gram negative bacteria ([3]; Vibrio vulnificus NCTC 11067): − | Hydrolysis by Gram negative bacteria ([4]; C. freundii CFR 1): ++ | Hydrolysis by Gram negative bacteria ([4]; C. freundii CFR 2): ++ | Hydrolysis by Gram negative bacteria ([4]; C. freundii CFR 3): ++ | Hydrolysis by Gram negative bacteria ([4]; C. freundii CFR 4): ++ | Hydrolysis by Gram negative bacteria ([4]; C. freundii NCTC 9750): ++ | Hydrolysis by Gram positive organisms [5]: − | Hydrolysis by Gram negative bacteria [6]: ++ | Hydrolysis by Gram positive organisms [7]: − | Hydrolysis by Gram positive organisms ([8]; Enterococcus faecium 1): − | Hydrolysis by Gram positive organisms ([8]; Enterococcus faecium 2): − | Hydrolysis by Gram positive organisms ([8]; Enterococcus faecium 3): − | Hydrolysis by Gram positive organisms ([8]; Enterococcus faecium 4): + | Hydrolysis by Gram positive organisms ([8]; Enterococcus faecium 5): − | Hydrolysis by Gram positive organisms ([8]; Enterococcus faecium 6): + | Hydrolysis by Gram positive organisms ([8]; Enterococcus faecium 7): − | Hydrolysis by Gram positive organisms ([8]; Enterococcus faecium 121285 - wild ′99): − | Hydrolysis by Gram negative bacteria [9]: ++ | Hydrolysis by Gram negative bacteria ([10]; Shigella dysenteriae (type 2) NCTC 9952): ++ | Hydrolysis by Gram negative bacteria ([10]; Shigella dysenteriae (type 3) NCTC 9720): ++ | Hydrolysis by Gram negative bacteria ([10]; Shigella dysenteriae (type 4) NCTC 9759): ++ | Hydrolysis by Gram negative bacteria ([11]; E. coli 0157 NCTC 12079): ++ | Hydrolysis by Gram negative bacteria ([11]; E. coli 0157 NCTC 12080): ++ | Hydrolysis by Gram negative bacteria ([11]; E. coli 0157 NCTC 12900): ++ | Hydrolysis by Gram negative bacteria ([11]; E. coli 0157 NCTC 13125): ++ | Hydrolysis by Gram negative bacteria ([11]; E. coli 0157 NCTC 13126): ++ | Hydrolysis by Gram negative bacteria ([11]; E. coli 0157 NCTC 13127): ++ | Hydrolysis by Gram negative bacteria ([11]; E. coli 0157 NCTC 13128): ++ | Hydrolysis by Gram positive organisms ([12]; Staphylococcus haemolyticus RB 66): + | Hydrolysis by Gram positive organisms ([12]; Staphylococcus haemolyticus RB 67): + | Hydrolysis by Gram positive organisms ([12]; Staphylococcus haemolyticus RB 68): + | Hydrolysis by Gram positive organisms ([12]; Staphylococcus haemolyticus RB 69): + | Hydrolysis by Gram positive organisms ([12]; Staphylococcus haemolyticus RB 70): + | Hydrolysis by Gram positive organisms [13]: + | Hydrolysis by Gram positive organisms [14]: − | Hydrolysis by Gram positive organisms [15]: − | Hydrolysis by Gram negative bacteria ([16]; Hafnia alvei HAL 2): ++ | Hydrolysis by Gram negative bacteria ([16]; Hafnia alvei NCTC 8105): ++ | Hydrolysis by Gram negative bacteria [17]: 0 | Hydrolysis by Gram positive organisms [18]: − | Hydrolysis by Gram positive organisms [19]: + | Hydrolysis by Gram negative bacteria [20]: − | Hydrolysis by Gram positive organisms ([21]; Haemolytic streptococcus A 1): − | Hydrolysis by Gram positive organisms ([21]; Haemolytic streptococcus A 2): − | Hydrolysis by Gram positive organisms ([21]; Haemolytic streptococcus A 3): − | Hydrolysis by Gram positive organisms [22]: + | Hydrolysis by Gram negative bacteria ([23]; E. aerogenes EAE 1): ++ | Hydrolysis by Gram negative bacteria ([23]; E. aerogenes NCIMB 10102): ++ | Hydrolysis by Gram negative bacteria ([24]; K. oxytoca KOX 1): ++ | Hydrolysis by Gram negative bacteria ([24]; K. oxytoca KOX 2): ++ | Hydrolysis by Gram negative bacteria ([25]; Y. enterocolitica NCTC 10460): − | Hydrolysis by Gram negative bacteria ([25]; Y. enterocolitica NCTC 11176): − | Hydrolysis by Gram negative bacteria ([25]; Y. enterocolitica NCTC 11177): − | Hydrolysis by Gram negative bacteria ([25]; Y. enterocolitica NCTC 11600): − | Hydrolysis by Gram negative bacteria ([26]; Providencia alcalifaciens PAL 1): + | Hydrolysis by Gram negative bacteria ([26]; Providencia alcalifaciens PAL 2): − | Hydrolysis by Gram negative bacteria [27]: ++ | Hydrolysis by Gram negative bacteria ([28]; C. diversus CDI 1): ++ | Hydrolysis by Gram negative bacteria ([28]; C. diversus CDI 2): ++ | Hydrolysis by Gram positive organisms [29]: − | Hydrolysis by Gram positive organisms [30]: −
